Data on two compounds can be found in patent US7371396B2, “Dermatological and cosmetic compositions” (Relivia SRL, priority 2001, dated 2008).

Usually melting point stands for the temperature, or range, at which the solid turns liquid.

The conditions of series [1]: Nomeir et al., Drug Metab Dispos 20(2):198-204, 1992; cited from earlier work.
For series [2], the system named is patients suffering from severe disabling atopic dermatitis (AD). Put plainly: Test in vivo with atopic dermatitis subjects (SCORAD system). Details: species or system human. The protocol: Experiments were carried out on patients (n=20) of both sexes, of age above 18 years, suffering from severe disabling atopic dermatitis (AD) unresponsive to the current topical treatments.
All patients were subjected to complete blood count and measurements of renal and hepatic functions prior to treatment. Patients who had been systemically treated two months previously with corticoids, antibiotics, psoralenes and other immunosuppressants or with UV were excluded. Patients were supposed not to use any corticoid topically.
Material—A commercially available formulation Triderm Lenil (ICIM International srl, Gallarate, Italy) was used as such (formulation I) or with the addition of 1×10^−2 mol (0.33 g) of Furfuryl palmitate (formulation II).
Triderm Lenil ingredients: aqua, petrolatum, paraffinnum liquidum, dimethicone, laureth-9, C12-C15 alkyl benzoate, soy sterol, phenyl trimethicone, cetearyl alcohol, ribes nigrum, bisabolol, tocopheryl acetate, dimethicone copolyol, capryloyl glycine, glycyrrhetinc acid, superoxide dismutase, phytosphingosine, polyquaternium-7, sodium carbomer, hydroxypropyl guar, disodium EDTA, farnesol, sodium chloride.
Treatment—Out of 20 patients, 10 were included in the furfuryl palmitate-treated group […] and 10 in the control group (formulation I). […] Patients were divided in two groups and treated twice a day for one months either with the Furfuryl palmitate-containing cream or with the placebo cream (control group). Evaluations—The progress of the disease was monitored with the SCORAD system (Dermatology 1993; 186: 23-31) drafted by European Task Force on Atopic Dermatitis (European Society of Pediatric Dermatology, Bordeaux, September 1990) with further modification by Hanifin and Rajka, thus by monitoring 3 criteria: • A) Lesione spread: analysis of surface involvement was performed during the clinical examination by drawing the involved areas on the evaluation sheet, then calculate the proportion of involved surface area segment by segment. For example, if ¾th of the right lower limb is interested by AD, the corresponding score is of about 7/9. • B) Grading of intensity: carried out in a chosen representative area in patients with localized lesions. In patients with areas varying in severity, a representative area of mean involvement is chosen. Dryness should be evaluated in a remote area of non-inflammatory skin. The elementary lesions were classified in the following manifestation: a) Erythema b) Edema/papulation c) Oozing/crusting d) Excoriation e) Lichenification, wherein each item is scored on a scale of 0 to 3, with the total for the intensity criteria is based on a maximum of 18 • C) Subjective signs: by looking at the two most representative items concerning the quality of life of patients during the 3 previous days, i.e. pruritus and insomnia. The patient and/or one of their relatives expresses the intensity of pruritus or insomnia using a visual analog scale graded between 0 and 10.
At the beginning of the treatment, the body area affected by eczema was 69% on the average in all patients. […] At the end of the treatment, the mean scores for itching decreased from 2.3 to 0.6 and for sleep disorders from 7.9 to 1.0. only in the furfuryl palmitate-treated patients.

[3] abbreviates: at the end of the treatment, 10 patients in the treated group.

As to `O=Cc1ccco1` [furfural], the “toxicity compared with furfuryl alcohol” value in series [1] is “at least twice as toxic as the furfuryl alcohol”.

Regarding `CCCCCCCCCCCCCCCC(=O)OCc1ccco1` [furfuryl palmitate, Furfuryl Palmitate], the melting point was 31 to 33 °C. Also, in series [2] (after the first two weeks of treatment, cream with furfuryl palmitate (formulation II) twice a day, decreased from 57.0 (SEM 1.6 n=10) at start), the “mean of the values concerning the different clinical symptoms (SCORAD)” value worked out at 21.5. Besides, the “mean score for itching” value in series [2] (at the end of the treatment (one month, twice a day), decreased from 2.3) was 0.6. Moreover, the “mean score for sleep disorders” value in series [2] (at the end of the treatment (one month, twice a day), decreased from 7.9) was 1.0. In series [2] (setting [3]), the “number of treated patients with significant improvements of all the considered parameters” value is given as 8 and the “treated patients with improvement limited to skin scaling” value is “two of them only showed improvements concerning skin scaling”. The “body area affected by eczema” value in series [2] (reached during treatment, twice a day for one month, 69% on the average in all patients at the beginning) is given as 27%.
